Columns and labels:
MDA-MB 231 cells = test: FACS analysis of CD44high/CD24low CSC-like subpopulation in Basal/metastatic model; format: cell-based, human; details: bisindolylmaleimide-I 4 μM
Description: Cells from each well/flask were harvested by means of trypsin treatment followed by two washes with PBS. Washed cells then re-suspended in an antibody cocktail consisting anti-CD44-APC, anti-CD24-PE antibodies (details in Table 5) and Hoechst 33258 dye (final dilution of 1:1000) (Invitrogen, Carlsbad, Calif.) in 1% FCS-PBS solution. Cells re-suspended in antibody cocktail were incubated for 20 minutes at 4° C. Cells were next washed twice with PBS and re-suspended in 1% FCS-PBS solution (volume based on cell number) and kept on ice until analyzed by FACS. Forward scatter (FSC) and side scatter parameters were selected with FITC fluorochrome excited by 488 nm argonion laser, PE fluorochrome excited by 488 nm and Hoechst fluorochrome excited by 350 nm helium-cadmium UV laser.
Flow Cytometry data was produced using either BD FACS LSR Flow Cytometer (Becton Dickinson Biosciences) or BD FACS Aria™ II Flow Cytometer (Becton Dickinson Biosciences) and analyzed using the data acquisition software CellQuest Pro (Becton Dickinson Biosciences) and FlowJo (Tree Star Inc., Ashland, Oreg.) software at the MCRF facility, JCSMR, ANU, Canberra, Australia. Single colour controls were used to set compensation parameters. Isotype controls were used for all corresponding primary antibodies in each experiment.
The adherent human mammary adenocarcinoma MCF-7 and MDA-MB-231 cells were cultured in low glucose DMEM (Gibco) and both supplemented with 10% FCS, 2 mM L-glutamine and 0.1% PSN antibiotics. Cells were stimulated with 0.65 ng/ml of phorbol 12-myristate 13-acetate (PMA) (Sigma-Aldrich) or 20 ng/ml of TGF-β (R&D systems) for the times indicated. For Bisindolylmaleimide-I (Calbiochem) or PKC-θ peptide inhibitor (Calbiochem) studies, cells were pre-treated with 1 μM or 30 μM of inhibitor respectively for 1 h prior to stimulation in MCF-7 cells. In case of MDA-MB-231, cells were treated with 4 μM or 30 μM Bisindolylmaleimide-I or PKC-θ peptide inhibitor respectively.
To separate CSC from non-CSC (NCSC), florescence activated cell sorting (FACS) was performed on single-cell suspensions that were stained with anti-CD44-APC (559942, BD Biosciences) and anti-CD24-PE antibodies (555428, BD Biosciences) along with Hoechst 33258 to monitor cell viability. As used throughout this work, CSC are defined by minority CD44^high/CD24^low, whereas NCSC are defined by rest of the cell populations.

[1] = test system: PKC-θ chromatin association at CSC inducible gene promoters (uPAR, CD44); test: ChIP assay with anti-PKC-θ antibodies in MCF-IM model; format: cell-based, human
Description: Between 1-5×10^6 Cells were harvested following various treatments according to the experimental requirement and re-suspended in 10 mL DMEM completer media at room temperature after counting then at Vi-CELL counter. Cells were then cross linked with freshly prepared 1% paraformaldehyde (PFA) (Analytical UNIVAR, Seattle, Wash.) for 10 minutes at room temperature with continuous but slow rotations on rotary wheel. Next, the reaction was quenched by the addition of 2M glycine solution (AnalaR, Merck, Darmstadt, Germany) to a get a final concentration of 125 mM and mixed further for 10 minutes at room temperature on the rotary wheel. Cells were then washed three times with 10 mL ice cold PBS and the cell pellet was either snap frozen on dry ice or used immediately afterwards. SDS Lysis Buffer (Upstate Biotechnology, Billerica, Mass.) was prepared by addition of 1× complete protease inhibitor solution (1 tablet dissolved in 1 mL DEPC water) (Roche Diagnostics, Mannheim, Germany) and cell pellet was then re-suspended in 250 μL of the in the SDS lysis buffer for 10 minutes at room temperature. Cells were sonicated (10 sec pulses for 2 minutes on 1 liter ice cold water mixed with ice, 70% maximum output) to shear the chromatin to obtain an average DNA fragment size of 250-500 bp using a Cole Palmer Ultrasonic processor (Cole Plamer, Vernon Hills, Ill.). […]

CN(C)CCCn1cc(C2=C(c3c[nH]c4ccccc34)C(=O)NC2=O)c2ccccc21 [bisindolylmaleimide-I]
CD44 high CD24 low-CSC-like subpopulation by FACS (MDA-MB 231 cells): inhibits CD44 high CD24 low-CSC-like subpopulation
CD44 high CD24 low-CSC-like subpopulation by FACS (MDA-MB 231 cells; listed as Broad spectrum PKC pathway inhibitor): inhibition of EMT and CSC formation
PKC-θ chromatin association across the uPAR promoter (ChIP) ([1]; MCF-IM model, bisindolylmaleimide-I 1 μM for 1 hr, then PMA for 60 hours): reduces its chromatin association across the uPAR promoter
binding of PKC-θ on the CD44 gene promoter (ChIP) ([1]; as worded in Example 13): reduction of binding of PKC-θ on the CD44 gene promoter
